Assay results reported in the NIST ThermoML archive (doi:10.1021/je5009125).
Numbers after ± are expanded uncertainties.

Test: xn = mol fraction of the nth substance listed
Conditions: Liquid; for viscosity: Vibrating wire viscometry; for mass density: Vibrating tube method

O=C=O [carbon dioxide] + O
viscosity (373.13 K, 70300 kPa, x1 = 0.0086): 0.302 ± 0.006 mPa·s | viscosity (373.13 K, 96400 kPa, x1 = 0.0086): 0.308 ± 0.006 mPa·s | mass density (373.38 K, 70590 kPa, x1 = 0.0271): 998.2 ± 0.7 kg/m3 | mass density (373.38 K, 100800 kPa, x1 = 0.0271): 1010.3 ± 0.7 kg/m3 | mass density (373.42 K, 15090 kPa, x1 = 0.0086): 967.8 ± 0.7 kg/m3 | mass density (373.42 K, 30180 kPa, x1 = 0.0086): 974.6 ± 0.7 kg/m3 | mass density (373.42 K, 50280 kPa, x1 = 0.0086): 983.2 ± 0.7 kg/m3 | mass density (373.42 K, 70390 kPa, x1 = 0.0086): 991.5 ± 0.7 kg/m3 | mass density (373.42 K, 100710 kPa, x1 = 0.0086): 1003.2 ± 0.7 kg/m3 | mass density (373.46 K, 30190 kPa, x1 = 0.0168): 977.8 ± 0.7 kg/m3 | mass density (373.46 K, 50320 kPa, x1 = 0.0168): 986.5 ± 0.7 kg/m3 | mass density (373.46 K, 70450 kPa, x1 = 0.0168): 994.9 ± 0.7 kg/m3 | mass density (373.46 K, 100740 kPa, x1 = 0.0168): 1006.7 ± 0.7 kg/m3 | viscosity (374.09 K, 70300 kPa, x1 = 0.0271): 0.309 ± 0.006 mPa·s | viscosity (374.09 K, 96400 kPa, x1 = 0.0271): 0.318 ± 0.006 mPa·s | viscosity (397.88 K, 30100 kPa, x1 = 0.0168): 0.233 ± 0.005 mPa·s | viscosity (397.88 K, 50200 kPa, x1 = 0.0168): 0.238 ± 0.006 mPa·s | viscosity (397.88 K, 70200 kPa, x1 = 0.0168): 0.244 ± 0.006 mPa·s | viscosity (397.88 K, 96300 kPa, x1 = 0.0168): 0.25 ± 0.006 mPa·s | viscosity (397.98 K, 30100 kPa, x1 = 0.0086): 0.231 ± 0.005 mPa·s | viscosity (397.98 K, 50200 kPa, x1 = 0.0086): 0.236 ± 0.006 mPa·s | viscosity (397.98 K, 70300 kPa, x1 = 0.0086): 0.242 ± 0.006 mPa·s | viscosity (397.98 K, 96400 kPa, x1 = 0.0086): 0.248 ± 0.006 mPa·s | mass density (398.48 K, 50470 kPa, x1 = 0.0271): 970 ± 0.7 kg/m3 | mass density (398.48 K, 70600 kPa, x1 = 0.0271): 979.3 ± 0.7 kg/m3 | mass density (398.48 K, 100800 kPa, x1 = 0.0271): 992.1 ± 0.7 kg/m3 | mass density (398.55 K, 15060 kPa, x1 = 0.0086): 948.3 ± 0.6 kg/m3 | mass density (398.55 K, 30170 kPa, x1 = 0.0086): 955.6 ± 0.6 kg/m3 | mass density (398.55 K, 30190 kPa, x1 = 0.0168): 958.2 ± 0.7 kg/m3 | mass density (398.55 K, 50290 kPa, x1 = 0.0086): 964.9 ± 0.7 kg/m3 | mass density (398.55 K, 50330 kPa, x1 = 0.0168): 967.8 ± 0.7 kg/m3 | mass density (398.55 K, 70390 kPa, x1 = 0.0086): 973.7 ± 0.7 kg/m3 | mass density (398.55 K, 70460 kPa, x1 = 0.0168): 976.7 ± 0.7 kg/m3 | mass density (398.55 K, 100710 kPa, x1 = 0.0086): 986 ± 0.7 kg/m3 | mass density (398.55 K, 100730 kPa, x1 = 0.0168): 989.4 ± 0.7 kg/m3 | viscosity (398.98 K, 50200 kPa, x1 = 0.0271): 0.241 ± 0.006 mPa·s | viscosity (398.98 K, 70200 kPa, x1 = 0.0271): 0.245 ± 0.006 mPa·s | viscosity (398.98 K, 96300 kPa, x1 = 0.0271): 0.254 ± 0.006 mPa·s | viscosity (422.91 K, 30000 kPa, x1 = 0.0168): 0.192 ± 0.005 mPa·s | viscosity (422.91 K, 50100 kPa, x1 = 0.0168): 0.196 ± 0.005 mPa·s | viscosity (422.91 K, 70200 kPa, x1 = 0.0168): 0.202 ± 0.005 mPa·s | viscosity (422.91 K, 96200 kPa, x1 = 0.0168): 0.208 ± 0.005 mPa·s | viscosity (423.82 K, 50200 kPa, x1 = 0.0271): 0.198 ± 0.005 mPa·s | viscosity (423.82 K, 70300 kPa, x1 = 0.0271): 0.204 ± 0.005 mPa·s | viscosity (423.82 K, 96500 kPa, x1 = 0.0271): 0.21 ± 0.005 mPa·s | mass density (423.84 K, 50460 kPa, x1 = 0.0271): 948 ± 0.7 kg/m3 | mass density (423.84 K, 70580 kPa, x1 = 0.0271): 958.1 ± 0.7 kg/m3 | mass density (423.84 K, 100810 kPa, x1 = 0.0271): 972.1 ± 0.7 kg/m3 | mass density (423.92 K, 15070 kPa, x1 = 0.0086): 925.9 ± 0.6 kg/m3 | mass density (423.92 K, 30180 kPa, x1 = 0.0086): 934 ± 0.6 kg/m3 | mass density (423.92 K, 50300 kPa, x1 = 0.0086): 944.2 ± 0.7 kg/m3 | mass density (423.92 K, 70420 kPa, x1 = 0.0086): 953.8 ± 0.7 kg/m3 | mass density (423.92 K, 100710 kPa, x1 = 0.0086): 967.1 ± 0.7 kg/m3 | mass density (423.93 K, 30200 kPa, x1 = 0.0168): 935.7 ± 0.6 kg/m3 | mass density (423.93 K, 50340 kPa, x1 = 0.0168): 946.2 ± 0.7 kg/m3 | mass density (423.93 K, 70460 kPa, x1 = 0.0168): 956 ± 0.7 kg/m3 | mass density (423.93 K, 100730 kPa, x1 = 0.0168): 969.7 ± 0.7 kg/m3 | viscosity (424.03 K, 30100 kPa, x1 = 0.0086): 0.19 ± 0.005 mPa·s | viscosity (424.03 K, 50200 kPa, x1 = 0.0086): 0.194 ± 0.005 mPa·s | viscosity (424.03 K, 70200 kPa, x1 = 0.0086): 0.199 ± 0.005 mPa·s | viscosity (424.03 K, 96400 kPa, x1 = 0.0086): 0.205 ± 0.005 mPa·s | viscosity (448.29 K, 30000 kPa, x1 = 0.0168): 0.163 ± 0.005 mPa·s | viscosity (448.29 K, 50100 kPa, x1 = 0.0168): 0.168 ± 0.005 mPa·s | viscosity (448.29 K, 70100 kPa, x1 = 0.0168): 0.173 ± 0.005 mPa·s | viscosity (448.29 K, 96200 kPa, x1 = 0.0168): 0.179 ± 0.005 mPa·s | viscosity (448.71 K, 50200 kPa, x1 = 0.0271): 0.169 ± 0.005 mPa·s | viscosity (448.71 K, 70200 kPa, x1 = 0.0271): 0.173 ± 0.005 mPa·s | viscosity (448.71 K, 96400 kPa, x1 = 0.0271): 0.179 ± 0.005 mPa·s | viscosity (448.93 K, 30000 kPa, x1 = 0.0086): 0.162 ± 0.005 mPa·s | viscosity (448.93 K, 50100 kPa, x1 = 0.0086): 0.167 ± 0.005 mPa·s | viscosity (448.93 K, 70200 kPa, x1 = 0.0086): 0.172 ± 0.005 mPa·s | viscosity (448.93 K, 96300 kPa, x1 = 0.0086): 0.178 ± 0.005 mPa·s | mass density (449.17 K, 50450 kPa, x1 = 0.0271): 923.6 ± 0.7 kg/m3 | mass density (449.17 K, 70570 kPa, x1 = 0.0271): 934.9 ± 0.7 kg/m3 | mass density (449.17 K, 100800 kPa, x1 = 0.0271): 950.3 ± 0.7 kg/m3 | mass density (449.2 K, 15080 kPa, x1 = 0.0086): 900.7 ± 0.6 kg/m3 | mass density (449.2 K, 30190 kPa, x1 = 0.0086): 909.9 ± 0.6 kg/m3 | mass density (449.2 K, 30210 kPa, x1 = 0.0168): 910.8 ± 0.6 kg/m3 | mass density (449.2 K, 50310 kPa, x1 = 0.0086): 921.3 ± 0.7 kg/m3 | mass density (449.2 K, 50360 kPa, x1 = 0.0168): 922.6 ± 0.7 kg/m3 | mass density (449.2 K, 70420 kPa, x1 = 0.0086): 931.8 ± 0.7 kg/m3 | mass density (449.2 K, 70470 kPa, x1 = 0.0168): 933.5 ± 0.7 kg/m3 | mass density (449.2 K, 100710 kPa, x1 = 0.0086): 946.4 ± 0.7 kg/m3 | mass density (449.2 K, 100740 kPa, x1 = 0.0168): 948.4 ± 0.7 kg/m3
